Assay results taken from publication PMC4261083, “An atypical residue in the pore of Varroa destructor GABA-activated RDL receptors affects picrotoxin block and thymol modulation” (Insect Biochemistry and Molecular Biology, 2014).
Changes are numbered by the printed parent chain.

Key:
Assay in all cases: GABA activation of RDL receptors, two electrode voltage clamp in Xenopus oocytes
Assay type in all cases: cell-based
[1] = biological target: T1, N-7′H mutant Drosophila RDL receptor (Drosophila melanogaster, UniProt P25123, N292H); conditions: N-7′H RDL
T1 construct: expressed in transfected cells; host or cells: Xenopus laevis oocytes injected with cRNA
T1 sequence (P25123 45-606 N292H): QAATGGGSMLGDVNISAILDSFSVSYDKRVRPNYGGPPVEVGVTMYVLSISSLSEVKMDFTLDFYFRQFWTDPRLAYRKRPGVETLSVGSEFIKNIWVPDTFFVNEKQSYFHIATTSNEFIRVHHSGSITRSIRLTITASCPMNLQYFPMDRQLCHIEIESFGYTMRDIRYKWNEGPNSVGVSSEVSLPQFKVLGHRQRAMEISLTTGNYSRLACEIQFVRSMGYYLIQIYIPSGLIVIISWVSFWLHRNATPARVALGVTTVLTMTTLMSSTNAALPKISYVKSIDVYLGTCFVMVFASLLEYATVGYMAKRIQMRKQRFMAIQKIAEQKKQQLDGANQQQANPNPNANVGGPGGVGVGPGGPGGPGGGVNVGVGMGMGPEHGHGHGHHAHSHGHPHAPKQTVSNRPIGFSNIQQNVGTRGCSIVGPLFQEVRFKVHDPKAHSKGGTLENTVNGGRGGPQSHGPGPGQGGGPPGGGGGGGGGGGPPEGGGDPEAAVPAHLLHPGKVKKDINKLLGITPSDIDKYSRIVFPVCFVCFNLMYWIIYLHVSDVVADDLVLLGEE
Experimental: (§1) X. laevis oocyte-positive females were purchased from NASCO (Fort Atkinson, Wisconsin, USA) and maintained according to standard methods. Harvested stage V-VI Xenopus oocytes were washed in four changes of ND96 (96 mM NaCl, 2 mM KCl, 1 mM MgCl2, 1 mM CaCl2, 5 mM HEPES, pH 7.5), de-folliculated in 1.5 mg ml^−1 collagenase Type 1A for approximately 2 h, washed again in four changes of ND96 and stored in ND96 containing 2.5 mM sodium pyruvate, 0.7 mM theophylline and […].
(§2) Site directed mutagenesis was performed with the QuikChange mutagenesis kit (Agilent, La Jolla, CA). cRNA was transcribed in vitro from linearised pGEMHE cDNA template using the mMessage mMachine T7 Transcription kit (Ambion, Austin, Texas, USA). Stage V and VI oocytes were injected with 5 ng cRNA, incubated at 18 °C, and currents recorded 18–24 h post-injection.
(§3) Currents were recorded at 5 kHz and filtered at a frequency of 1 kHz. Micro-electrodes were fabricated from borosilicate glass (GC120TF-10, Harvard Apparatus, Edenbridge, Kent, UK) using a one stage horizontal pull (P-87, Sutter Instrument Company, California, USA) and filled with 3 M KCl. […] Oocytes were perfused with ND96 at a constant rate of 12 ml min^−1. Drug application was via a simple gravity fed system calibrated to run at the same rate.
(§4) Analysis and curve fitting was performed using Prism v5 (GraphPad Software, San Diego, California, USA). Concentration-response data for each oocyte was normalised to the maximum current for that oocyte. The mean and S.E.M. for a series of oocytes were fitted to the four parameter logistic equation in Prism.

[2] = biological target: T2, 4M2 mutant Drosophila RDL receptor (N-7′H, T6′M, A20′S and A21′Q) (Drosophila melanogaster, UniProt P25123, A319S/A320Q/N292H/T305M); conditions: 4M2 RDL
T2 construct: expressed in transfected cells; host or cells: Xenopus laevis oocytes injected with cRNA
T2 sequence (P25123 45-606 N292H/T305M/A319S/A320Q): T1 sequence (P25123 45-606 N292H) with T261M, A275S, A276Q
Experimental: as §1, §2, §3, §4

[3] = biological target: T3, T6′M mutant Drosophila RDL receptor (Drosophila melanogaster, UniProt P25123, T305M)
T3 construct: expressed in transfected cells; host or cells: Xenopus laevis oocytes injected with cRNA
T3 sequence (P25123 45-606 T305M): T1 sequence (P25123 45-606 N292H) with H248N, T261M
Experimental: as §1, §2, §3, §4

SMILES: NCCCC(=O)O [GABA]
- GABA nH (Hill slope) [1]: 2.5 ± 0.5
- GABA nH (Hill slope) [2]: 1.0 ± 0.3
- GABA nH (Hill slope) [3]: 1.4 ± 0.2
